Experimental data reported in patent US7807176B2, “Polypeptide promoting vascular endothelial cell growth” (Genomidea, Inc., priority 2004, dated 2010).
“Also recorded” adds a separate entry of the source.

Experiments:
HAEC = experiment: MTS assay of endothelial cell proliferation with added peptide; assay type: cell-based, human; conditions: for endothelial proliferation Increase [times]: MTS, Table 3
Method: F2 peptide was synthesized and then contacted in a varying amount with HAEC, and the ability thereof to proliferate the cells was examined by MTS assay. The MTS assay is a modification of the MTT assay, and is a method of measuring living cells based on a reaction of reducing tetrazolium salt (MTS) by living cells in culture, into a colored product formazan. Specifically, this assay is carried out as follows: • HAEC was inoculated onto a 96-well plate at a density of 750 cells/well. • 2 μl/well of each sample was added to 100 μl/well endothelial cell medium (1% FBS, without EGF). 2 μl/well was added every day (until Day 6) (the medium was not exchanged). • 20 μl measurement solution (Cell Titer 96 AQueous One Solution Cell Proliferation Assay (Promega)) was added to each well and mixed with 100 μl of the endothelial cell medium, and the old medium was removed by suction. A mixed suspension of the measurement solution and the cells was put in a volume of 120 μl/well and then incubated for 1 to 5 hours in a CO2 incubator. • The absorbance at 490 nm was measured with a plate reader.
The sample group (8 wells each) is as follows: • NC: Only EBM medium (endothelial cell medium) containing 1% FBS. The other samples were cultured by adding various peptides to this medium containing serum. • VEGF-A: Recombinant VEGF-A (KURABO) was added at a final concentration of 10 ng/ml. • F2-1: F2 peptide was added at a final concentration of 1 ng/ml. • F2-10: F2 peptide was added at a final concentration of 10 ng/ml. • F2-100: F2 peptide was added at a final concentration of 100 ng/ml. • F2-1000: F2 peptide was added at a final concentration of 1000 ng/ml.

[1] = test system: ERK (extracellular signal-related kinase); experiment: Effect on ERK activity; conditions: data are not shown
tube formation = experiment: Tube formation, Kurabo Angiogenesis kit with CD31 staining and image quantification; assay type: cell-based, human; conditions: for tube Area % Increase / tube Length % Increase: Table 2; for Area (% increase): Example 5, Table 4; for Length (% increase): Example 5, Table 5
Method: Using a Kurabo Angiogenesis kit (KZ-1000, Kurabo Industries Ltd.), tube formation was examined. A blank, vascular endothelial growth factor-A protein (VEGF-A), pVEGF plasmid (plasmid containing a gene encoding vascular endothelial growth factor), and pSPORT1 (a plasmid not containing a gene encoding vascular endothelial growth factor) were used as controls. […]
Culture was carried out at 37° C. in a 5% CO2 incubator. The medium was exchanged on the 4th, 7th and 9th days of culture with a fresh medium containing the same additives.
CD31 (PECAM-1) staining primary antibody (mouse anti-human CD31 antibody) was diluted 4,000-fold with a blocking solution (Dulbecco's phosphate buffer solution (PBS(−)) containing 1% BSA). 0.5 ml of this primary antibody solution was added to each well and incubated for 60 minutes at 37° C. After incubation was finished, each well was washed 3 times with 1 ml blocking solution.
Then, 0.5 ml of a secondary antibody (goat anti-mouse IgG/alkali phosphatase conjugate) solution, diluted 500-fold with the blocking solution, was added to each well and incubated for 60 minutes at 37° C., and each well was washed 3 times with 1 ml distilled water. Separately, 2 tablets of BCIP/NBT were dissolved in 20 ml distilled water and filtered through a filter with a pore size of 0.2 μm, to prepare a substrate solution. 0.5 ml of the prepared BCIP/NBT substrate solution was added to each well and incubated at 37° C. until the tube turned deep violet (usually in 5 to 10 minutes). After incubation was finished, each well was washed 3 times with 1 ml distilled water, followed by removing the washing solution using suction, and the plate was left to air-dry. After drying, each well was observed under a microscope.
Each well was observed under a 40× magnification microscope and a photograph of each well was taken. An enlarged photograph with the scale of 1 mm magnified 40-fold was taken (FIG. 5).
Each of the resulting images was quantified with angiogenesis quantification software (KSW-5000U, Kurabo Industries Ltd.) according to the following method. The area (left in FIG. 6) and length (right in FIG. 6) of tubes formed in each visual field were measured on the scale by computer analysis with various indicators. […]

[2] = test system: connective tissue growth factor (CTGF) mRNA; experiment: Growth factor mRNA expression level: CTGF; assay type: cell-based
[3] = test system: phosphatidyl inositol-3-kinase/Akt (PI3K/Akt); experiment: Effect on PI3K/Akt activity; conditions: data are not shown
[4] = test system: insulin-like growth factor-1 (IGF-1) mRNA; experiment: Growth factor mRNA expression level: IGF-1; assay type: cell-based
Human endothelial cells = experiment: Test Example 2: growth of endothelial cells; assay type: cell-based; conditions: 1, 10 and 100 ng/ml; Test Example 2, present tense
Method: Human endothelial cells are sensitized with the HVJ envelope vector and then cultured in the presence or absence of human F2 peptide added externally (1, 10 and 100 ng/ml), to determine the increase (%) of the number of cells. […] Separately, endothelial cells sensitized with the HVJ envelope vector (concentration: 10 μg/ml) are cultured and an increase in the number of cells is measured to determine percentage increase (%). […] Further, the endothelial cells sensitized with the HVJ envelope vector are cultured in the presence or absence of rabbit anti-human F peptide antibody, and then an increase in the number of cells is measured to determine percentage increase (%).

MLSLIFLHRLKSMRKRLDRKLRFWHRKNYP (listed as Homo sapiens) [F2 peptide]
endothelial proliferation Increase [times] (HAEC; 100 ng/ml): 1.23 times | endothelial proliferation Increase [times] (HAEC; 1 μg/ml): 1.475 times | cell proliferation ability (MTS assay, absorbance at 490 nm) (HAEC; F2 peptide 1 to 1000 ng/ml added every day until Day 6, VEGF-A 10 ng/ml, FIG. 9): recognized in a dose-dependent manner, similar to VEGF protein; also recorded: stronger activity of enhancing proliferation of HEAC than VEGF | effect on ERK activity [1]: did not have any direct effect | tube Area % Increase (tube formation; 100 ng/ml): 61% | tube Length % Increase (tube formation; 100 ng/ml): 53% | Area (% increase) (tube formation; 1 μg/ml): 41.8% | Length (% increase) (tube formation; 1 μg/ml): 38.5% | tube Area % Increase (tube formation; 1 μg/ml): 55% | tube Length % Increase (tube formation; 1 μg/ml): 50% | Area (% increase) (tube formation; 10 μg/ml): 131.4% | Length (% increase) (tube formation; 10 μg/ml): 115.5% | angiogenesis activity compared with LL-37 peptide (in words) (tube formation; 10 μg/ml, FIG. 15): higher angiogenesis activity at a dose of 10 μg/ml than that of LL-37 peptide | tube Area % Increase (tube formation; 10 μg/ml): 132% | tube Length % Increase (tube formation; 10 μg/ml): 116% | in vitro angiogenesis activity (in words) (tube formation; F2 0.1, 1, 10 μg/ml versus VEGF 50 ng/ml and control peptide): larger blood vessels were formed; also recorded: stronger angiogenesis enhancing activity than that of VEGF | effect on mRNA level of CTGF (in words) [2]: did not have any effect | CTGF mRNA Increased Amount [times] ([2]; 24 hrs): 0.2 times | CTGF mRNA Increased Amount [times] ([2]; 48 hrs): 1.1 times | CTGF mRNA Increased Amount [times] ([2]; 72 hrs): 0.5 times | effect on PI3K/Akt activity [3]: did not have any direct effect | IGF-1 mRNA Increased Amount [times] ([4]; 24 hrs): 46.2 times | IGF-1 mRNA Increased Amount [times] ([4]; 48 hrs): 97.9 times | IGF-1 mRNA Increased Amount [times] ([4]; 72 hrs): 243.8 times | effect on mRNA level of IGF-1 (in words) ([4]; over 72 hours, FIG. 16): up-regulated the mRNA level of insulin-like growth factor-1 (IGF-1) potently and specifically in a time-dependent manner | growth of endothelial cells with externally added peptide (Human endothelial cells): growth of endothelial cells is promoted
